Measurements published in patent US10696615B2, “Prenylated hydroxystilbenes” (The University of Sydney, priority 2011, dated 2020).

What was measured:
Format in all cases: cell-based, human
[1] = system: SF-295; assay: NCI in vitro cancer screen, CNS Cancer; details: SF-295; for GI50 / CC50: Homo sapiens; for CC50: read-out: LC50 (the source's name)
[2] = system: COLO 205; assay: NCI in vitro cancer screen, Colon Cancer; details: COLO 205; for GI50 / CC50: Homo sapiens; for CC50: read-out: LC50 (the source's name)
[3] = system: K-562; assay: NCI in vitro cancer screen, Leukemia; details: K-562; for GI50 / CC50: Homo sapiens, K562; for CC50: read-out: LC50 (the source's name)
[4] = system: ACHN; assay: NCI in vitro cancer screen, Renal Cancer; details: for GI50 / CC50: Homo sapiens; for CC50: read-out: LC50 (the source's name)
[5] = system: SK-MEL-2; assay: NCI in vitro cancer screen, Melanoma; details: SK-MEL-2
[6] = system: MDA-MB-231 (MDA-MB-231/ATCC); assay: NCI in vitro cancer screen, Breast Cancer; details: MDA-MB-231; for GI50 / CC50: Homo sapiens; for CC50: read-out: LC50 (the source's name)
[7] = system: HCT-15; assay: NCI in vitro cancer screen, Colon Cancer; details: HCT-15; for GI50 / CC50: Homo sapiens; for CC50: read-out: LC50 (the source's name)
[8] = system: T-47D; assay: NCI in vitro cancer screen, Breast Cancer; details: for GI50 / CC50: Homo sapiens, T47D; for CC50: read-out: LC50 (the source's name)
[9] = system: UO-31; assay: NCI in vitro cancer screen, Renal Cancer; details: UO-31; for GI50 / CC50: Homo sapiens; for CC50: read-out: LC50 (the source's name)
[10] = system: HL-60 (TB); assay: NCI in vitro cancer screen, Leukemia; details: HL-60 (TB); for GI50 / CC50: Homo sapiens; for CC50: read-out: LC50 (the source's name)
[11] = system: RXF-393; assay: NCI in vitro cancer screen, Renal Cancer; details: RXF-393; for GI50 / CC50: Homo sapiens; for CC50: read-out: LC50 (the source's name)
[12] = system: LOX IMVI; assay: NCI in vitro cancer screen, Melanoma; details: for GI50 / CC50: Homo sapiens; for CC50: read-out: LC50 (the source's name)
[13] = system: NCI-H322M; assay: NCI in vitro cancer screen, Non-Small Cell Lung Cancer
[14] = system: SNB-75; assay: NCI in vitro cancer screen, CNS Cancer; details: SNB-75; for GI50 / CC50: Homo sapiens; for CC50: read-out: LC50 (the source's name)
[15] = system: UACC-62; assay: NCI in vitro cancer screen, Melanoma; details: UACC-62; for GI50 / CC50: Homo sapiens; for CC50: read-out: LC50 (the source's name)
[16] = system: MOLT-4; assay: NCI in vitro cancer screen, Leukemia; details: MOLT-4; for GI50 / CC50: Homo sapiens; for CC50: read-out: LC50 (the source's name)
[17] = system: HCC-2998; assay: NCI in vitro cancer screen, Colon Cancer; details: HCC-2998; for GI50 / CC50: Homo sapiens; for CC50: read-out: LC50 (the source's name)
[18] = system: A498; assay: NCI in vitro cancer screen, Renal Cancer; details: A498; for GI50 / CC50: Homo sapiens; for CC50: read-out: LC50 (the source's name)
[19] = system: NCI-H460; assay: NCI in vitro cancer screen, Non-Small Cell Lung Cancer; details: NCI-H460; for GI50 / CC50: Homo sapiens; for CC50: read-out: LC50 (the source's name)
[20] = system: M14; assay: NCI in vitro cancer screen, Melanoma; details: M14; for GI50 / CC50: Homo sapiens; for CC50: read-out: LC50 (the source's name)
[21] = system: ADR-RES (NCI/ADR-RES); assay: NCI in vitro cancer screen, Ovarian Cancer; details: for TGI: ADR-RES; for GI50 / CC50: Homo sapiens, NCI/ADR-RES; for CC50: read-out: LC50 (the source's name)
[22] = system: A549/ATCC; assay: NCI in vitro cancer screen, Non-Small Cell Lung Cancer; details: for GI50 / CC50: Homo sapiens; for CC50: read-out: LC50 (the source's name)
[23] = system: MDA-MB-435; assay: NCI in vitro cancer screen, Melanoma; details: MDA-MB-435; for GI50 / CC50: Homo sapiens; for CC50: read-out: LC50 (the source's name)
[24] = system: MALME-3M; assay: NCI in vitro cancer screen, Melanoma; details: for GI50 / CC50: Homo sapiens, Malme-3M; for CC50: read-out: LC50 (the source's name); for TGI: MALME-3M
[25] = system: NCI-H522; assay: NCI in vitro cancer screen, Non-Small Cell Lung Cancer; details: NCI-H522; for GI50 / CC50: Homo sapiens; for CC50: read-out: LC50 (the source's name)
[26] = system: PC-3; assay: NCI in vitro cancer screen, Prostate Cancer; details: PC-3; for GI50 / CC50: Homo sapiens; for CC50: read-out: LC50 (the source's name)
[27] = system: SK-OV-3; assay: NCI in vitro cancer screen, Ovarian Cancer; details: SK-OV-3; for GI50 / CC50: Homo sapiens; for CC50: read-out: LC50 (the source's name)
[28] = system: RPMI-8226; assay: NCI in vitro cancer screen, Leukemia; details: RPMI-8226; for GI50 / CC50: Homo sapiens; for CC50: read-out: LC50 (the source's name)
[29] = system: SN12C; assay: NCI in vitro cancer screen, Renal Cancer; details: for GI50 / CC50: Homo sapiens; for CC50: read-out: LC50 (the source's name)
[30] = system: 786-0; assay: NCI in vitro cancer screen, Renal Cancer; details: 786-0

CC(C)=CCc1c(O)cc(/C=C/c2ccc(O)cc2)c(CC=C(C)C)c1O [USYDS6, (E)-2,4-di(3-methyl-2-buten-1-yl)-3,4′,5-trihydroxystilbene]
GI50 [1]: 6.78 µM
CC50 [1]: 53.2 µM
TGI [1]: 20.8 µM
TGI [2]: 30.2 µM
GI50 [2]: 16 µM
CC50 [2]: 57.2 µM
GI50 [3]: 1.46 µM
CC50 [3]: 22.6 µM
TGI [3]: 4.13 µM
TGI [4]: 14.6 µM
GI50 [4]: 3.94 µM
CC50 [4]: 50.4 µM
GI50 ([5]; Homo sapiens): 13.1 µM
TGI [5]: 33.6 µM
GI50 [6]: 1.72 µM
CC50 [6]: 17.2 µM
TGI [6]: 4.54 µM
TGI [7]: 6.26 µM
GI50 [7]: 2.13 µM
CC50 [7]: 48.2 µM
TGI [8]: 20.3 µM
GI50 [8]: 5.03 µM
CC50 [8]: 57.9 µM
GI50 [9]: 2.51 µM
CC50 [9]: 33.5 µM
TGI [9]: 7.50 µM
TGI [10]: 4.83 µM
GI50 [10]: 2.07 µM
CC50 [10]: 15.4 µM
GI50 [11]: 2.15 µM
CC50 [11]: 18.7 µM
TGI [11]: 5.39 µM
TGI [12]: 3.42 µM
GI50 [12]: 1.76 µM
CC50 [12]: 6.68 µM
TGI [13]: 25.5 µM
GI50 ([13]; Homo sapiens): 1.16 µM
GI50 [14]: 6.67 µM
CC50 [14]: 54 µM
TGI [14]: 21.4 µM
GI50 [15]: 10.3 µM
CC50 [15]: 53.8 µM
TGI [15]: 23.5 µM
GI50 [16]: 1.59 µM
CC50 [16]: 16.8 µM
TGI [16]: 4.27 µM
TGI [17]: 8.78 µM
GI50 [17]: 2.81 µM
CC50 [17]: 32.2 µM
TGI [18]: 25.0 µM
GI50 [18]: 11.7 µM
CC50 [18]: 53.1 µM
GI50 [19]: 1.89 µM
CC50 [19]: 8.06 µM
TGI [19]: 3.90 µM
GI50 [20]: 2.82 µM
CC50 [20]: 33.4 µM
TGI [20]: 8.46 µM
TGI [21]: 15.2 µM
GI50 [21]: 3.46 µM
CC50 [21]: 51.2 µM
TGI [22]: 8.42 µM
GI50 [22]: 2.69 µM
CC50 [22]: 33.7 µM
GI50 [23]: 3.37 µM
CC50 [23]: 42.1 µM
TGI [23]: 10.8 µM
GI50 [24]: 2.8 µM
CC50 [24]: 37.1 µM
TGI [24]: 8.56 µM
GI50 [25]: 2.18 µM
CC50 [25]: 17.8 µM
TGI [25]: 5.15 µM
GI50 [26]: 1.8 µM
CC50 [26]: 8.44 µM
TGI [26]: 3.89 µM
GI50 [27]: 13.9 µM
CC50 [27]: 53.2 µM
TGI [27]: 27.1 µM
GI50 [28]: 2.34 µM
CC50 [28]: 62 µM
TGI [28]: 5.61 µM
TGI [29]: 7.98 µM
GI50 [29]: 2.85 µM
CC50 [29]: 30.8 µM
TGI [30]: 6.96 µM
GI50 ([30]; Homo sapiens): 2.46 µM

CC(C)=CCc1c(O)cc(/C=C/c2ccc(O)c(O)c2)c(CC=C(C)C)c1O [USYDS7, (E)-2,4-di(3-methyl-2-buten-1-yl)-3,3′,4′,5-tetrahydroxystilbene]
GI50 [1]: 3.37 µM
CC50 [1]: 44.6 µM
TGI [1]: 11.4 µM
TGI [2]: 4.34 µM
GI50 [2]: 1.79 µM
CC50 [2]: 12.2 µM
GI50 [3]: 2.14 µM
CC50 [3]: 17.4 µM
TGI [3]: 4.78 µM
TGI [4]: 9.12 µM
GI50 [4]: 2.58 µM
CC50 [4]: 37.6 µM
GI50 ([5]; Homo sapiens): 3.2 µM
LC50 ([5]; Homo sapiens): 42.9 µM
TGI [5]: 7.82 µM
GI50 [6]: 1.49 µM
CC50 [6]: 10.7 µM
TGI [6]: 3.89 µM
TGI [7]: 3.78 µM
GI50 [7]: 1.29 µM
CC50 [7]: 22 µM
TGI [8]: 6.09 µM
GI50 [8]: 1.88 µM
CC50 [8]: 43.5 µM
GI50 [9]: 1.6 µM
CC50 [9]: 7.46 µM
TGI [9]: 3.46 µM
TGI [10]: 5.06 µM
GI50 [10]: 2.39 µM
CC50 [10]: 13.8 µM
GI50 [11]: 1.53 µM
CC50 [11]: 6.8 µM
TGI [11]: 3.23 µM
TGI [12]: 3.41 µM
GI50 [12]: 1.71 µM
CC50 [12]: 6.81 µM
TGI [13]: 18.1 µM
GI50 ([13]; Homo sapiens): 5.29 µM
LC50 (50% lethal concentration) ([13]; Homo sapiens): 44.7 µM
GI50 [14]: 2.98 µM
CC50 [14]: 49.1 µM
TGI [14]: 12.8 µM
GI50 [15]: 2.8 µM
CC50 [15]: 31.5 µM
TGI [15]: 7.84 µM
GI50 [16]: 2.01 µM
CC50 [16]: 26.5 µM
TGI [16]: 5.19 µM
TGI [17]: 4.26 µM
GI50 [17]: 1.95 µM
CC50 [17]: 9.34 µM
TGI [18]: 23.8 µM
GI50 [18]: 11.1 µM
CC50 [18]: 50.8 µM
GI50 [19]: 1.64 µM
CC50 [19]: 6.33 µM
TGI [19]: 3.22 µM
GI50 [20]: 1.79 µM
CC50 [20]: 7.73 µM
TGI [20]: 3.71 µM
TGI [21]: 7.90 µM
GI50 [21]: 2.23 µM
CC50 [21]: 42.4 µM
TGI [22]: 4.06 µM
GI50 [22]: 1.88 µM
CC50 [22]: 8.78 µM
GI50 [23]: 2.29 µM
CC50 [23]: 31.7 µM
TGI [23]: 6.47 µM
GI50 [24]: 1.97 µM
CC50 [24]: 10.4 µM
TGI [24]: 4.46 µM
GI50 [25]: 1.61 µM
CC50 [25]: 7.92 µM
TGI [25]: 3.57 µM
GI50 [26]: 2.02 µM
CC50 [26]: 11.3 µM
TGI [26]: 4.57 µM
GI50 [27]: 5.98 µM
CC50 [27]: 46.5 µM
TGI [27]: 19.4 µM
GI50 [28]: 2.31 µM
CC50 [28]: 61.1 µM
TGI [28]: 6.01 µM
TGI [29]: 3.16 µM
GI50 [29]: 1.65 µM
CC50 [29]: 6.03 µM
TGI [30]: 4.47 µM
GI50 ([30]; Homo sapiens): 1.99 µM
LC50 (50% net cell kill) ([30]; Homo sapiens): 10.2 µM
